“And” between values parts separate entries of the source, which are not always exact repeats. Equal values may be shown once. Inconclusive results and toxic doses are left out. How the source made its calls: active means survival T/C of 150% or more; inactive means T/C below 125% in these data.
Tested on: B6C3F1 mice, intracerebral ependymoblastoma, median survival T/C
Experiment: NCI In Vivo Anticancer Drug Screen. Data for tumor model Ependymoblastoma (intracerebral) in B6C3F1 mice
Conditions: endpoint: median survival time, higher = longer survival
Method: The antitumor activity of compounds was measured in mice bearing transplantable tumors. Survival or tumor size were measured and the results are expressed as the measurement made in the treated group (T) divided by the measurement made in the vehicle treated control group (C). The tumor model used in this assay is Ependymoblastoma (intracerebral) in B6C3F1 mice

[1] = dose: 12.5 mg/kg/injection, schedule: Q01DX005 (ip), vehicle: Klucel (hydroxypropylcellulose) (HPC)
[2] = dose: 25.0 mg/kg/injection, schedule: Q01DX005 (ip), vehicle: Klucel (hydroxypropylcellulose) (HPC)
[3] = dose: 50.0 mg/kg/injection, schedule: Q01DX005 (ip), vehicle: Klucel (hydroxypropylcellulose) (HPC)
[4] = dose: 100.0 mg/kg/injection, schedule: Q01DX005 (ip), vehicle: Klucel (hydroxypropylcellulose) (HPC)
[5] = dose: 200.0 mg/kg/injection, schedule: Q01DX005 (ip), vehicle: Klucel (hydroxypropylcellulose) (HPC)
[6] = dose: 400.0 mg/kg/injection, schedule: Q01DX005 (ip), vehicle: Klucel (hydroxypropylcellulose) (HPC)
[7] = dose: 32.0 mg/kg/injection, schedule: Q01DX005 (ip), vehicle: saline
[8] = dose: 64.0 mg/kg/injection, schedule: Q01DX005 (ip), vehicle: saline
[9] = dose: 128.0 mg/kg/injection, schedule: Q01DX005 (ip), vehicle: saline
[10] = dose: 1.0 mg/kg/injection, schedule: Q01DX005 (ip), vehicle: saline
[11] = dose: 50.0 mg/kg/injection, schedule: Q01DX005 (ip), vehicle: saline with Tween-80
[12] = dose: 100.0 mg/kg/injection, schedule: Q01DX005 (ip), vehicle: saline with Tween-80
[13] = dose: 200.0 mg/kg/injection, schedule: Q01DX005 (ip), vehicle: saline with Tween-80
[14] = dose: 400.0 mg/kg/injection, schedule: Q01DX005 (ip), vehicle: saline with Tween-80
[15] = dose: 800.0 mg/kg/injection, schedule: Q01DX005 (ip), vehicle: saline with Tween-80
[16] = dose: 3.12 mg/kg/injection, schedule: Q01DX005 (ip), vehicle: saline with Tween-80
[17] = dose: 6.25 mg/kg/injection, schedule: Q01DX005 (ip), vehicle: saline with Tween-80
[18] = dose: 12.5 mg/kg/injection, schedule: Q01DX005 (ip), vehicle: saline with Tween-80
[19] = dose: 25.0 mg/kg/injection, schedule: Q01DX005 (ip), vehicle: saline with Tween-80

Measured: T/C

ClC1C(Cl)C(Cl)C(Cl)C(Cl)C1Cl (stereo not drawn)
inactive: [1] 100 % of control | [2] 107 % of control and 108 % of control | [3] 95 % of control and 102 % of control | [4] 117 % of control and 118 % of control | [5] 98 % of control and 107 % of control | [6] 107 % of control

CN1CCC23c4c5ccc(O)c4OC2C(O)C=CC3C1C5 (stereo not drawn)
inactive: [7] 112 % of control | [8] 101 % of control | [9] 99 % of control

O=C1C(NCC(O)CO)=C(N2CC2)C(=O)C(NCC(O)CO)=C1N1CC1 (stereo not drawn)
inactive: dose: 0.5 mg/kg/injection, schedule: Q01DX005 (ip), vehicle: saline 117 % of control | [10] 116 % of control

O=C(NC1CCCCC1)OCc1c(COC(=O)NC2CCCCC2)c(-c2ccc(Cl)c(Cl)c2)n2c1CCC2
inactive: [11] 99 % of control and 102 % of control | [12] 92 % of control and 108 % of control | [13] 104 % of control and 115 % of control | [14] 115 % of control and 118 % of control | [15] 106 % of control and 110 % of control

COc1ccc2c(c1OC(C)=O)-c1cc(O)cc3c1C(C2)N(C(=O)CN(CCCl)CCCl)CC3 (stereo not drawn)
inactive: [16] 96 % of control | [17] 102 % of control | [18] 105 % of control

Nc1nc(SCc2ccccc2F)c2ncn(C3OC(CO)C(O)C3O)c2n1 (stereo not drawn)
inactive: dose: 0.78 mg/kg/injection, schedule: Q01DX005 (ip), vehicle: saline with Tween-80 101 % of control and 103 % of control | dose: 1.56 mg/kg/injection, schedule: Q01DX005 (ip), vehicle: saline with Tween-80 100 % of control and 109 % of control | [16] 93 % of control and 96 % of control | [17] 91 % of control and 104 % of control and 120 % of control | [18] 99 % of control | [19] 122 % of control

COc1cc(C[C@H]2c3cc(OC)c(OC)cc3CCN2C)c(Oc2cc3c(cc2OC)-c2c(OC)c(OC)cc4c2[C@H](C3)N(C)CC4)cc1OC
inactive: [1] 94 % of control | [2] 100 % of control | [3] 100 % of control and 102 % of control and 105 % of control | [4] 102 % of control

O=P1(N(CCCl)CCCl)NC(OO)CCO1 (stereo not drawn)
inactive: dose: 40.0 mg/kg/injection, schedule: Q01DX001 (ip), vehicle: saline 102 % of control | dose: 80.0 mg/kg/injection, schedule: Q01DX001 (ip), vehicle: saline 108 % of control | dose: 160.0 mg/kg/injection, schedule: Q01DX001 (ip), vehicle: saline 113 % of control

O=[N+]([O-])O.[Ga]
inactive: [7] 107 % of control | [8] 100 % of control | [9] 105 % of control

CCC(=O)NC1=C(N2CC2C)C(=O)C(NC(=O)CC)=C(N2CC2C)C1=O (stereo not drawn)
inactive: dose: 0.78 mg/kg/injection, schedule: Q01DX009 (ip), vehicle: Klucel (hydroxypropylcellulose) (HPC) 105 % of control | dose: 1.56 mg/kg/injection, schedule: Q01DX009 (ip), vehicle: Klucel (hydroxypropylcellulose) (HPC) 110 % of control | dose: 3.12 mg/kg/injection, schedule: Q01DX009 (ip), vehicle: Klucel (hydroxypropylcellulose) (HPC) 106 % of control | dose: 6.25 mg/kg/injection, schedule: Q01DX009 (ip), vehicle: Klucel (hydroxypropylcellulose) (HPC) 105 % of control

COc1cc(NS(C)(=O)=O)ccc1Nc1c2ccccc2nc2ccccc12
inactive: dose: 1.0 mg/kg/injection, schedule: Q01DX005 (ip), vehicle: Klucel (hydroxypropylcellulose) (HPC) 110 % of control | [10] 103 % of control and 104 % of control | dose: 1.0 mg/kg/injection, schedule: Q01DX005 (ip), vehicle: water 94 % of control and 96 % of control (2×) | dose: 2.0 mg/kg/injection, schedule: Q01DX005 (ip), vehicle: Klucel (hydroxypropylcellulose) (HPC) 99 % of control | dose: 2.0 mg/kg/injection, schedule: Q01DX005 (ip), vehicle: saline 107 % of control and 112 % of control | dose: 2.0 mg/kg/injection, schedule: Q01DX005 (ip), vehicle: water 94 % of control and 100 % of control and 101 % of control | dose: 4.0 mg/kg/injection, schedule: Q01DX005 (ip), vehicle: Klucel (hydroxypropylcellulose) (HPC) 103 % of control | dose: 4.0 mg/kg/injection, schedule: Q01DX005 (ip), vehicle: saline 103 % of control | dose: 4.0 mg/kg/injection, schedule: Q01DX005 (ip), vehicle: water 96 % of control and 100 % of control and 108 % of control | dose: 8.0 mg/kg/injection, schedule: Q01DX005 (ip), vehicle: saline 106 % of control and 112 % of control | dose: 8.0 mg/kg/injection, schedule: Q01DX005 (ip), vehicle: water 100 % of control and 107 % of control and 112 % of control

CC1(C)OCC(CO)(Nc2nc(N3CC3)nc(N3CC3)n2)CO1
inactive: dose: 1.25 mg/kg/injection, schedule: Q01DX005 (ip), vehicle: suspension in saline 105 % of control | dose: 2.5 mg/kg/injection, schedule: Q01DX005 (ip), vehicle: suspension in saline 103 % of control | dose: 5.0 mg/kg/injection, schedule: Q01DX005 (ip), vehicle: suspension in saline 113 % of control

Nc1ccc(S(N)(=O)=O)cc1
inactive: [19] 98 % of control | [11] 96 % of control and 103 % of control | [12] 101 % of control and 103 % of control | [13] 92 % of control and 102 % of control | [14] 101 % of control and 107 % of control | [15] 95 % of control

COc1ccc2cc1Oc1ccc(cc1)C[C@H]1c3cc(c(OC)cc3CCN1C)Oc1c(OC)c(OC)cc3c1[C@H](C2)N(C)CC3
inactive: [3] 100 % of control | [4] 88 % of control | [5] 108 % of control | [6] 91 % of control
